According to US20190060428A1, “FORMULATIONS FOR NEOPLASIA VACCINES AND METHODS OF PREPARING THEREOF” (The Broad Institue Inc., priority 2015, published 2019):
Values joined by “and” are separate entries in the source; they are usually repeats but may differ in a detail not shown here. Identical values can stand only once.

Experiments:
[1] = Direct dissolution of peptides in D5W without DMSO; format: physicochemical; conditions: <1 mg peptide
[2] = Peptide diluent matrix (precipitation of DMSO dissolved peptides in various liquids); format: physicochemical; set-up: key to Precipitation in diluent: Liposome / Precipitation in diluent: PBS pH 7.4 / Precipitation in diluent: Water / Precipitation in diluent: 10% Sucrose / Precipitation in diluent: D5W (5% Dextrose USP Grade Inj): P = precipitation; NP = no precipitation; conditions: for Precipitation in diluent: 10% Sucrose: 10-20 μL DMSO dissolved peptide added to 10% Sucrose; for Precipitation in diluent: D5W (5% Dextrose USP Grade Inj): 10-20 μL DMSO dissolved peptide added to D5W; for Precipitation in diluent: Liposome: 10-20 μL DMSO dissolved peptide added to Liposome; for Precipitation in diluent: PBS pH 7.4: 10-20 μL DMSO dissolved peptide added to PBS pH 7.4; for Precipitation in diluent: Water: 10-20 μL DMSO dissolved peptide added to Water
Description: Additional peptide solubility conditions were tested. Peptides CS6709, CS6712, CS6720, CS6726, and CS6783 were weighed at approximately 10 mg each. The peptides were then dissolved in approximately 200 μL USP grade DMSO to obtain a 50 mg/mL concentration for each peptide. […] The sample appeared to be cloudy. Additional 50 μL increments of DMSO were added to Peptide CS6709 up to 400 μL; for a total of 600 μL of DMSO. […] To dilute the peptides to 400 μg, a PBS pH 7.4 solution without potassium was prepared. All 5 DMSO peptide samples (50 mg/mL) were placed in a single vial for dilution to 400 μg/mL. Each DMSO peptide was added to the vial at 40 μL, except for CS6709 which was at a concentration of 16.67 mg/mL. The volume of CS6709 added to the single vial was 120 μL. The samples were diluted to 400 μg by adding 4.72 mL PBS pH 7.4. Upon addition of the PBS pH 7.4, it was observed that one or more of the peptides had precipitated out. To determine which of the peptides precipitated, Applicants followed the matrix in Table 5 below using very small amounts (10-20 μL) of the DMSO dissolved peptides and adding these peptides to the various liquids.

[3] = Solubility of peptides in DMSO/D5W/5 mM succinate formulation; conditions: pH 6
[4] = Short-term room temperature stability of Pool 3 mixed with Hiltonol (RP-HPLC); format: physicochemical
Description: A peptide pool (Pool 3) consisting of the five peptides shown in Table 6 below was prepared by dissolution in DMSO and dilution with D5W/Succinate (2 mM) to 2 mg/ml and pooling to a final peptide concentration of 400 μg per ml and a final DMSO concentration of 4%. After preparation, peptides were filtered with a 25 mm Pall PES filter (Cat#4612) and dispensed into Nunc Cryo vials (#375418) in one ml aliquots.
Three samples were prepared by mixing 0.75 ml of Pool3 with 0.25 ml Hiltonol® as planned for the dosage form preparation. The samples were then left at room temperature for 0, 4 and 6 hours and analyzed by RP-HPLC (Table 7). […] As slight increase in a second peak associated with peptide CS6919 was noted, increasing from 14% to 17% and 18% at 4 and 6 hours, respectively. […] Recovery of all peptides was above 90%, indicating no breakdown and loss of any peptides in the final dosage form after 6 hour room temperature incubation.

[5] = pH of peptide solutions in DMSO/D5W, with succinate, and with Hiltonol; format: physicochemical

Which “Dissolution directly in D5W without using DMSO” value [1] does the source give for “H-SPTEPSTKLPGFDSCGNTEIAERKIKRIYGGFK-OH [CS6720]” here?
Its value is “could be dissolved directly in D5W”.

What about the “Precipitation in diluent: 10% Sucrose” value [2] of the same substance?
The value was “NP”.

And the “Precipitation in diluent: D5W (5% Dextrose USP Grade Inj)” value [2]?
The value was “NP”.

What about the “Precipitation in diluent: Liposome” value [2] of the same substance?
The value was “NP”.

What about the “Precipitation in diluent: PBS pH 7.4” value [2] of the same substance?
The value was “NP”.

And the “Precipitation in diluent: Water” value [2]?
The value was “NP”.

For H-HPEFANPDSMEYISDVVDEVIQN-OH, which solubility [3] is on record?
Its solubility is over 2000 µg/mL.

Which solubility [3] does the source give for H-SLPKSFKRKIFVVSATKGVPAGNSD-OH here?
The solubility was over 2000 µg/mL.

With H-PIDTSKTDPTVLLFMESQYSQLGQD-OH as the substance, how does the solubility [3] read?
Its solubility is over 2000 µg/mL.

For H-LAALCPASRALEEKKGNYVVTDHGS-OH, which solubility [3] is on record?
The solubility was over 2000 µg/mL.

What does the source list for “H-KLAWRGRISSSGCPSMTSPPSPMFGMTLHT-OH [CS6919]”?
% Impurity ([4]; Pool 3 + Hiltonol, 4 Hours RT): 17% and 17.09%; % Purity ([4]; Pool 3 + Hiltonol, 4 Hours RT): 82.91%; Main Peak ([4]; Pool 3 + Hiltonol, 4 Hours RT): 7238.56; Total Impurities ([4]; Pool 3 + Hiltonol, 4 Hours RT): 1492.4; Total Peak ([4]; Pool 3 + Hiltonol, 4 Hours RT): 8730.96; % Impurity ([4]; Pool 3 + Hiltonol, 6 Hours RT): 18% and 18.14%; % Purity ([4]; Pool 3 + Hiltonol, 6 Hours RT): 81.86%; Main Peak ([4]; Pool 3 + Hiltonol, 6 Hours RT): 7688.89; Total Impurities ([4]; Pool 3 + Hiltonol, 6 Hours RT): 1703.9; Total Peak ([4]; Pool 3 + Hiltonol, 6 Hours RT): 9392.79; % Impurity ([4]; T0 Pool 3 + Hiltonol, RP-HPLC): 14% and 13.9%; % Purity ([4]; T0 Pool 3 + Hiltonol, RP-HPLC): 86.1%; Main Peak ([4]; T0 Pool 3 + Hiltonol, RP-HPLC): 7786.28; Total Impurities ([4]; T0 Pool 3 + Hiltonol, RP-HPLC): 1256.72; Total Peak ([4]; T0 Pool 3 + Hiltonol, RP-HPLC): 9043; pH of peptides in DMSO/D5W [5]: 4.38; pH of peptides in DMSO/D5W/5mM S. Succinate spike [5]: 6.74; pH of peptides in DMSO/D5W/5nnM Succinate and Hiltonol [5]: 6.99

What does the source list for “H-LLTDRNTSGTTFTLLGVSDYPELQVPLFLVFLA-OH [CS6783]”?
pH of peptides in DMSO/D5W [5]: 3.96; Dissolution directly in D5W without using DMSO [1]: could not be dissolved; Precipitation in diluent: 10% Sucrose [2]: NP; Precipitation in diluent: D5W (5% Dextrose USP Grade Inj) [2]: NP; Precipitation in diluent: Liposome [2]: P; Precipitation in diluent: PBS pH 7.4 [2]: P; Precipitation in diluent: Water [2]: NP; Precipitation when PBS pH 7.4 added as diluent to the peptide mixture ([2]; dilution to 400 μg/mL): precipitate

For H-AVRSPGSPLILEVGSGSGAIS-OH, which solubility [3] is on record?
The solubility was over 2000 µg/mL.

For H-SHKLESIKEITNFKDAKQLL-OH, which solubility [3] is on record?
The solubility was over 2000 µg/mL.

With H-PAAGDFIRFRFFQLLRLERFF-OH as the substance, how does the solubility [3] read?
Its solubility is under 2000 µg/mL.

For H-PETGEIQVKTFLDREQRESYELKV-OH, which solubility [3] is on record?
Its solubility is over 2000 µg/mL.

What does the source list for “H-DSAVDKGHPNRSALSLTPGLRIGPSGIPQAGLG-OH [CS6726]”?
Dissolution directly in D5W without using DMSO [1]: could be dissolved directly in D5W; Precipitation in diluent: 10% Sucrose [2]: NP; Precipitation in diluent: D5W (5% Dextrose USP Grade Inj) [2]: NP; Precipitation in diluent: Liposome [2]: NP; Precipitation in diluent: PBS pH 7.4 [2]: NP; Precipitation in diluent: Water [2]: NP

Which results are given for H-AESAQRQGPNGGGEQSANEF-OH [CS7416]?
% Impurity ([4]; Pool 3 + Hiltonol, 4 Hours RT): 2.56%; % Purity ([4]; Pool 3 + Hiltonol, 4 Hours RT): 97.44%; Main Peak ([4]; Pool 3 + Hiltonol, 4 Hours RT): 5669.85; Total Impurities ([4]; Pool 3 + Hiltonol, 4 Hours RT): 148.82; Total Peak ([4]; Pool 3 + Hiltonol, 4 Hours RT): 5818.67; % Impurity ([4]; Pool 3 + Hiltonol, 6 Hours RT): 2.1%; % Purity ([4]; Pool 3 + Hiltonol, 6 Hours RT): 97.9%; Main Peak ([4]; Pool 3 + Hiltonol, 6 Hours RT): 6197.48; Total Impurities ([4]; Pool 3 + Hiltonol, 6 Hours RT): 132.83; Total Peak ([4]; Pool 3 + Hiltonol, 6 Hours RT): 6330.31; % Impurity ([4]; T0 Pool 3 + Hiltonol, RP-HPLC): 2.35%; % Purity ([4]; T0 Pool 3 + Hiltonol, RP-HPLC): 97.65%; Main Peak ([4]; T0 Pool 3 + Hiltonol, RP-HPLC): 5988.42; Total Impurities ([4]; T0 Pool 3 + Hiltonol, RP-HPLC): 143.98; Total Peak ([4]; T0 Pool 3 + Hiltonol, RP-HPLC): 6132.4; pH of peptides in DMSO/D5W [5]: 3.91; pH of peptides in DMSO/D5W/5mM S. Succinate spike [5]: 6.31; pH of peptides in DMSO/D5W/5nnM Succinate and Hiltonol [5]: 6.54
